Experimental findings from patent US20220296563A1, “ACYLATED ACTIVE AGENTS AND METHODS OF THEIR USE FOR THE TREATMENT OF METABOLIC DISORDERS AND NONALCOHOLIC FATTY LIVER DISEASE” (Flagship Pioneering Innovations V, Inc., priority 2019, published 2022) are described below.

Test [1] relates to Mouse myocyte. Put plainly: Mouse myocyte lipolysis assay. In kind it is cell-based. As to conditions: 100 μM, differentiated myocytes. The protocol: Cells were obtained from ATCC and cultured in Dulbecco's Modified Eagle's medium (DMEM) containing 20% fetal bovine serum and 1% penicillin/streptomycin at 37° C. in an incubator with 5% CO2 Once the cells became confluent, they were seeded into a tissue culture treated 96 well plate. The next day, the medium containing DMEM with 2% equine serum was used to start differentiation. Table 2 lists the tested compounds including those that reduced the release of glycerol (+, ++, or +++). The lipolytic rate of muscle triglycerides is associated with metabolic dysfunction including insulin resistance and liver steatosis. Compounds that lower lipolysis of adipocytes may improve metabolic function including improving insulin sensitivity and reducing liver steatosis, thus improving outcomes in patients with diabetes mellitus (e.g., prediabetes or type II diabetes) obesity, and hyperlipidemia.

The subject of test [2] is C57BL/6 mice. Put plainly: In vivo evaluation in C57BL/6 mice fed a high-fat diet. As to conditions: vs. HFD control group, up to day 84. The protocol: Animals were allowed free access to food and drinking water for the entire study. Animals were weighed on a regular basis, and food and drinking water consumption monitored. Plasma and stool samples were collected at the beginning of the study and 42 days into the study. Additional blood was drawn from fasted mice 58 days into the study. Insulin tolerance tests were performed 72 or 73 days into the study. Following an approximate 4 h fast, 0.5 Units/kg insulin was administered intraperitoneally. Blood was collected pre-insulin challenge (t=0) and at t=15, 30, 60, 90, and 120 min following insulin challenge. Oral glucose tolerance tests were performed 79 or 80 days into the study. Following an approximate 4 h fast, 2 g/kg glucose was administered by oral gavage. Blood was collected pre-insulin challenge (t=0) and at t=15, 30, 60, 90, and 120 min following glucose challenge. At the end of the study, body weight, food consumption, blood glucose, serum ALT levels, serum AST levels, serum cholesterol (total cholesterol. HDL, and LDL levels), serum triglycerides levels, liver triglyceride levels, liver cholesterol levels, liver weight, subcutaneous were measured in all mice.

As for `O=C(O)c1cc(O)ccc1O` [Gentisate], in test [1], the “Free glycerol % DMSO” value is listed as “+++ (50%<: +++)”.

Turning to `CC(=O)O[C@@H]1OC[C@@H](OC(C)=O)[C@H](OC(C)=O)[C@H]1OC(C)=O` [compound 4], the body weight entry in test [2] is listed as “induce weight loss”.
